Test results taken from ChEMBL document CHEMBL1124481, “2-Haloaporphines as potent dopamine agonists” (J Med Chem, 1989).

Columns and labels:
[1] = tested on: D(2) dopamine receptor (Sus scrofa); assay: Proportion of high affinity state of Dopamine receptor D2 measured by compound ability to displace [3H]spiperone from porcine anterior pituitary membranes
[2] = tested on: D(2) dopamine receptor (Sus scrofa); assay: Compound was evaluated for the ability to displace [3H]-spiperone at Dopamine receptor D2 in porcine anterior pituitary gland as low affinity state

Structure (SMILES) | D-2 [1] | D-2 [2]
CN1CCc2cc(Br)cc3c2[C@H]1Cc1ccc(O)c(O)c1-3 | 62% | 49%
CN1CCc2cc(N)cc3c2[C@H]1Cc1ccc(O)c(O)c1-3 | 62% | 38%
